Read-outs that look alike come from different tables or passages of the source.

9 compounds from US10206394B2, “Herbicidal compounds” (Syngenta Participations AG, priority 2014, dated 2019) can be followed below.

Holding throughout (test): Glasshouse assay for herbicidal activity (pre- and post-emergence), percentage phytotoxicity
Holding throughout (type): in vivo

The test system of one experiment is Avena fatua (AVEFA). The settings on record: Avena fatua. The gist of the method:
(§1)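 Visually rated damage, 0–100%. PRE spray 1 d after sowing, scored 20 DAA; POST spray ~12 d, scored 15 DAA. Glasshouse at 65% humidity, 16 h day.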

A further experiment deals with Lolium perenne (LOLPE). The following applies: Lolium perenne. In outline:
as §1

Experiment [1] deals with Echinochloa crus-galli (ECHCG). The following applies: Echinochloa crus-galli. In outline:
as §1

Experiment [2] has as its system Alopecurus myosuroides (ALOMY). The following applies: Alopecurus myosuroides. The gist of the method:
as §1

Where [3] appears, read: post-emergence, 360 h, POST-emergence, rate 250 g/ha, visual score 15 DAA (100%=total damage, 0%=no damage), read-out: Post-emergence herbicidal activity (percentage phytotoxicity) AVEFA POST.
The mark [4] stands for this setting: pre-emergence, 480 h, PRE-emergence, rate 250 g/ha, visual score 20 DAA (100%=total damage, 0%=no damage), read-out: Pre-emergence herbicidal activity (percentage phytotoxicity) AVEFA PRE.
The mark [5] stands for this setting: post-emergence, 360 h, POST-emergence, rate 250 g/ha, visual score 15 DAA (100%=total damage, 0%=no damage), read-out: Post-emergence herbicidal activity (percentage phytotoxicity) LOLPE POST.
Where [6] appears, read: pre-emergence, 480 h, PRE-emergence, rate 250 g/ha, visual score 20 DAA (100%=total damage, 0%=no damage), read-out: Pre-emergence herbicidal activity (percentage phytotoxicity) LOLPE PRE.
The mark [7] stands for this setting: post-emergence, 360 h, POST-emergence, rate 250 g/ha, visual score 15 DAA (100%=total damage, 0%=no damage), read-out: Post-emergence herbicidal activity (percentage phytotoxicity) ECHCG POST.
[8] abbreviates: pre-emergence, 480 h, PRE-emergence, rate 250 g/ha, visual score 20 DAA (100%=total damage, 0%=no damage), read-out: Pre-emergence herbicidal activity (percentage phytotoxicity) ECHCG PRE.
Setting [9] is: post-emergence, 360 h, POST-emergence, rate 250 g/ha, visual score 15 DAA (100%=total damage, 0%=no damage), read-out: Post-emergence herbicidal activity (percentage phytotoxicity) ALOMY POST.
Where [10] appears, read: pre-emergence, 480 h, PRE-emergence, rate 250 g/ha, visual score 20 DAA (100%=total damage, 0%=no damage), read-out: Pre-emergence herbicidal activity (percentage phytotoxicity) ALOMY PRE.
The mark [11] stands for this setting: post-emergence, 360 h, Rate 250 g/ha, post-emergence, visual assessment 15 DAA, 100%=total damage, 0%=no damage, read-out: Post-emergence herbicidal activity (percentage phytotoxicity) AVEFA POST.
[12] abbreviates: pre-emergence, 480 h, Rate 250 g/ha, pre-emergence, visual assessment 20 DAA, 100%=total damage, 0%=no damage, read-out: Pre-emergence herbicidal activity (percentage phytotoxicity) AVEFA PRE.
Setting [13] is: post-emergence, 360 h, Rate 250 g/ha, post-emergence, visual assessment 15 DAA, 100%=total damage, 0%=no damage, read-out: Post-emergence herbicidal activity (percentage phytotoxicity) LOLPE POST.
Where [14] appears, read: pre-emergence, 480 h, Rate 250 g/ha, pre-emergence, visual assessment 20 DAA, 100%=total damage, 0%=no damage, read-out: Pre-emergence herbicidal activity (percentage phytotoxicity) LOLPE PRE.
[15] abbreviates: post-emergence, 360 h, Rate 250 g/ha, post-emergence, visual assessment 15 DAA, 100%=total damage, 0%=no damage, read-out: Post-emergence herbicidal activity (percentage phytotoxicity) ECHCG POST.
[16] abbreviates: pre-emergence, 480 h, Rate 250 g/ha, pre-emergence, visual assessment 20 DAA, 100%=total damage, 0%=no damage, read-out: Pre-emergence herbicidal activity (percentage phytotoxicity) ECHCG PRE.
The mark [17] stands for this setting: post-emergence, 360 h, Rate 250 g/ha, post-emergence, visual assessment 15 DAA, 100%=total damage, 0%=no damage, read-out: Post-emergence herbicidal activity (percentage phytotoxicity) ALOMY POST.
[18] abbreviates: pre-emergence, 480 h, Rate 250 g/ha, pre-emergence, visual assessment 20 DAA, 100%=total damage, 0%=no damage, read-out: Pre-emergence herbicidal activity (percentage phytotoxicity) ALOMY PRE.
The mark [19] stands for this setting: post-emergence, 360 h, Rate 250 g/ha, post-emergence, assessed visually 15 DAA, 100%=total damage, 0%=no damage, read-out: Post-emergence herbicidal activity (percentage phytotoxicity) AVEFA POST.
The mark [20] stands for this setting: pre-emergence, 480 h, Rate 250 g/ha, pre-emergence, assessed visually 20 DAA, 100%=total damage, 0%=no damage, read-out: Pre-emergence herbicidal activity (percentage phytotoxicity) AVEFA PRE.
The mark [21] stands for this setting: post-emergence, 360 h, Rate 250 g/ha, post-emergence, assessed visually 15 DAA, 100%=total damage, 0%=no damage, read-out: Post-emergence herbicidal activity (percentage phytotoxicity) LOLPE POST.
Where [22] appears, read: pre-emergence, 480 h, Rate 250 g/ha, pre-emergence, assessed visually 20 DAA, 100%=total damage, 0%=no damage, read-out: Pre-emergence herbicidal activity (percentage phytotoxicity) LOLPE PRE.
The mark [23] stands for this setting: post-emergence, 360 h, Rate 250 g/ha, post-emergence, assessed visually 15 DAA, 100%=total damage, 0%=no damage, read-out: Post-emergence herbicidal activity (percentage phytotoxicity) ECHCG POST.
[24] abbreviates: pre-emergence, 480 h, Rate 250 g/ha, pre-emergence, assessed visually 20 DAA, 100%=total damage, 0%=no damage, read-out: Pre-emergence herbicidal activity (percentage phytotoxicity) ECHCG PRE.
The mark [25] stands for this setting: post-emergence, 360 h, Rate 250 g/ha, post-emergence, assessed visually 15 DAA, 100%=total damage, 0%=no damage, read-out: Post-emergence herbicidal activity (percentage phytotoxicity) ALOMY POST.
Where [26] appears, read: pre-emergence, 480 h, Rate 250 g/ha, pre-emergence, assessed visually 20 DAA, 100%=total damage, 0%=no damage, read-out: Pre-emergence herbicidal activity (percentage phytotoxicity) ALOMY PRE.
[27] abbreviates: post-emergence, 360 h, 250 g/ha, post-emergence, 15 DAA, visual assessment (100%=total damage, 0%=no damage), read-out: Post-emergence herbicidal activity (percentage phytotoxicity) AVEFA POST.
The mark [28] stands for this setting: pre-emergence, 480 h, 250 g/ha, pre-emergence, 20 DAA, visual assessment (100%=total damage, 0%=no damage), read-out: Pre-emergence herbicidal activity (percentage phytotoxicity) AVEFA PRE.
Setting [29] is: post-emergence, 360 h, 250 g/ha, post-emergence, 15 DAA, visual assessment (100%=total damage, 0%=no damage), read-out: Post-emergence herbicidal activity (percentage phytotoxicity) LOLPE POST.
Setting [30] is: pre-emergence, 480 h, 250 g/ha, pre-emergence, 20 DAA, visual assessment (100%=total damage, 0%=no damage), read-out: Pre-emergence herbicidal activity (percentage phytotoxicity) LOLPE PRE.
[31] abbreviates: post-emergence, 360 h, 250 g/ha, post-emergence, 15 DAA, visual assessment (100%=total damage, 0%=no damage), read-out: Post-emergence herbicidal activity (percentage phytotoxicity) ECHCG POST.
Setting [32] is: pre-emergence, 480 h, 250 g/ha, pre-emergence, 20 DAA, visual assessment (100%=total damage, 0%=no damage), read-out: Pre-emergence herbicidal activity (percentage phytotoxicity) ECHCG PRE.
[33] abbreviates: post-emergence, 360 h, 250 g/ha, post-emergence, 15 DAA, visual assessment (100%=total damage, 0%=no damage), read-out: Post-emergence herbicidal activity (percentage phytotoxicity) ALOMY POST.
Setting [34] is: pre-emergence, 480 h, 250 g/ha, pre-emergence, 20 DAA, visual assessment (100%=total damage, 0%=no damage), read-out: Pre-emergence herbicidal activity (percentage phytotoxicity) ALOMY PRE.

For the compound `COc1ccc(CNC(=O)CC2CC(=O)C(c3c(C)cc(-n4cc(Cl)cn4)cc3C)C2=O)cc1` (stereo not drawn) [Compound B224], the pest or weed control at 250 g/ha stood at 80% in the experiment on Avena fatua (AVEFA) (setting [3]); 50% in the experiment with Avena fatua (AVEFA) (setting [4]); 80% in the experiment on Lolium perenne (LOLPE) (setting [5]); 70% with Lolium perenne (LOLPE) (setting [6]); 90% in experiment [1] (setting [7]); 70% in experiment [1] (setting [8]). Besides, the pest or weed control at 250 g/ha in experiment [2] (setting [9]) and in experiment [2] (setting [10]) was 80% in each case.
`COCC(C)NC(=O)CC1CC(=O)C(c2c(C)cc(-c3ncc(F)cc3F)cc2C)C1=O` (stereo not drawn) [Compound B335]: the pest or weed control at 250 g/ha in the experiment on Avena fatua (AVEFA) (setting [11]) came out at 100%; in the experiment with Avena fatua (AVEFA) (setting [12]), 100%; with Lolium perenne (LOLPE) (setting [13]), 100%; in the experiment with Lolium perenne (LOLPE) (setting [14]), 100%; in experiment [1] (setting [15]), 100%; in experiment [1] (setting [16]) it was 90%. The pest or weed control at 250 g/ha in experiment [2] (setting [17]) and in experiment [2] (setting [18]) was 100% each time.
As for `CCC(C)NC(=O)CC1CC(=O)C(c2c(C)cc(-n3cc(Cl)cn3)cc2C)C1=O` (stereo not drawn) [Compound B315], the pest or weed control at 250 g/ha turned out to be 100% with Avena fatua (AVEFA) (setting [3]); 80% in the experiment with Avena fatua (AVEFA) (setting [4]); 80% in the experiment with Lolium perenne (LOLPE) (setting [5]); 70% in the experiment on Lolium perenne (LOLPE) (setting [6]); 100% in experiment [1] (setting [7]); 100% in experiment [1] (setting [8]). Further, the pest or weed control at 250 g/ha was 90% in experiment [2] (setting [9]) and 80% in experiment [2] (setting [10]).
For the compound `Cc1cc(C)c(C2C(=O)CC(C(C)C(=O)NCc3cccc(C(F)(F)F)c3)C2=O)c(C)c1` (stereo not drawn) [Compound A166], the pest or weed control at 250 g/ha with Avena fatua (AVEFA) (setting [19]) worked out at 70%; with Avena fatua (AVEFA) (setting [20]) it was 20%; in the experiment with Lolium perenne (LOLPE) (setting [21]), 70%; with Lolium perenne (LOLPE) (setting [22]) it was 70%; in experiment [1] (setting [23]), 90%; in experiment [1] (setting [24]) it was 70%. Also, the pest or weed control at 250 g/ha in experiment [2] (setting [25]) and in experiment [2] (setting [26]) was 40% throughout.
Regarding `C#CC(C)(C)NC(=O)CC1CC(=O)C(c2c(C)cc(Br)cc2C)C1=O` (stereo not drawn) [Compound B127], the pest or weed control at 250 g/ha with Avena fatua (AVEFA) (setting [27]) was found to be 100%; with Avena fatua (AVEFA) (setting [28]) it was 80%; in the experiment on Lolium perenne (LOLPE) (setting [29]) it was 90%; with Lolium perenne (LOLPE) (setting [30]), 70%; in experiment [1] (setting [31]), 100%; in experiment [1] (setting [32]), 70%. For the same compound, the pest or weed control at 250 g/ha in experiment [2] (setting [33]) and in experiment [2] (setting [34]) was 90% in each case.
With `Cc1cc(C)c(C2C(=O)CC(CC(=O)N(C)C(C)C)C2=O)c(C)c1` (stereo not drawn) [Compound A161], the pest or weed control at 250 g/ha with Avena fatua (AVEFA) (setting [19]) turned out to be 30%; in the experiment with Avena fatua (AVEFA) (setting [20]), 30%; in the experiment with Lolium perenne (LOLPE) (setting [21]), 90%; in the experiment with Lolium perenne (LOLPE) (setting [22]), 100%; in experiment [1] (setting [23]), 80%; in experiment [1] (setting [24]), 100%. For the same compound, the pest or weed control at 250 g/ha was found to be 70% in experiment [2] (setting [25]) and 20% in experiment [2] (setting [26]).
With `C#CC(C)(C)NC(=O)CC1CC(=O)C(c2c(C)cc(-c3ccc(Cl)cn3)cc2C)C1=O` (stereo not drawn) [Compound B363], the pest or weed control at 250 g/ha with Avena fatua (AVEFA) (setting [11]) is 100%; in the experiment with Avena fatua (AVEFA) (setting [12]), 90%; in the experiment on Lolium perenne (LOLPE) (setting [13]), 90%; with Lolium perenne (LOLPE) (setting [14]), 100%; in experiment [1] (setting [15]) it was 100%; in experiment [1] (setting [16]), 100%. The pest or weed control at 250 g/ha is 90% in experiment [2] (setting [17]) and 100% in experiment [2] (setting [18]).
As for `Cc1cc(-c2ncc(Cl)cc2F)cc(C)c1C1C(=O)CC(CC(=O)NCC2CC2)C1=O` (stereo not drawn) [Compound B123], the pest or weed control at 250 g/ha in the experiment on Avena fatua (AVEFA) (setting [27]) was determined as 100%; with Avena fatua (AVEFA) (setting [28]), 90%; in the experiment with Lolium perenne (LOLPE) (setting [29]), 100%; in the experiment on Lolium perenne (LOLPE) (setting [30]), 100%; in experiment [1] (setting [31]), 100%; in experiment [1] (setting [32]), 100%. Besides, the pest or weed control at 250 g/ha in experiment [2] (setting [33]) and in experiment [2] (setting [34]) was 100% in each case.
As for `CCN(C)C(=O)CC1CC(=O)C(c2c(C)cc(-c3ccc(Cl)cn3)cc2C)C1=O` (stereo not drawn) [Compound B367], the pest or weed control at 250 g/ha (in the experiment on Avena fatua (AVEFA) (setting [11]); with Avena fatua (AVEFA) (setting [12]); in the experiment on Lolium perenne (LOLPE) (setting [13]); in the experiment with Lolium perenne (LOLPE) (setting [14]); in experiment [1] (setting [15]); in experiment [1] (setting [16])) was 100% throughout. For the same compound, the pest or weed control at 250 g/ha in experiment [2] (setting [17]) and in experiment [2] (setting [18]) was 90% in each case.
